These results are taken from patent US10703800B2, “Cell culture medium” (La Jolla Biologics, Inc., priority 2016, dated 2020).

Experiment [1] has as its system CHO.DXB11 cells. The experiment in a line: Media supplementation with fatty acids, methyl esters, sterols, glycerides and isoprenoids, mAb1 production. Type of experiment: cell-based, Chinese hamster. To be noted: supplement in ethanol fed daily per Table 5 (2.7-10.7 μM, ethanol 0.05% v/v) vs control. As to the method: (§1) Monoclonal antibodies 1 (mAb1) and 4 (mAb4) were produced using two separate cell lines according to methods described in the previous Examples. Titer, percent of high molecular weight and low molecular weight species, acidic and basic charge variants, and glycosylation species profiles were assessed as in the previous Examples.
(§2) Fatty acids were dissolved in ethanol and fed daily according to Table 5 using two different process strategies for mAb1 and mAb4. The mAb1 process strategy was maintained at 37° C. then shifted to 31° C. during late exponential phase, with the pH being maintained at 7.0±0.2 throughout the culture. The mAb4 process strategy was maintained at 36.5° C. then shifted to 33° C. during production phase, with the pH being shifted from 7.0±0.1 to 6.8±0.1 in the late exponential phase. Both process strategies were maintained at 30% air saturation

For another experiment, the system named is cell line producing mAb4. Description: Media supplementation with fatty acids, methyl esters, sterols, glycerides and isoprenoids, mAb4 production. It counts as cell-based. To be noted: supplement in ethanol fed daily per Table 5 (5.0-20.0 μM, ethanol 0.09% v/v) vs control. As to the method: as §1, §2
Experiment [2] has as its system CHO.DXB11 cells. The experiment in a line: Oleic acid in bench-scale bioreactors, baseline without fatty acids or ethanol, mAb 1. It counts as cell-based, Chinese hamster. The following applies: oleic acid 40 μM + ethanol 0.057% v/v fed daily vs baseline without both, 14 day fed-batch. The source says:
Feed media was supplemented with fatty acids to determine if fatty acids altered mAb properties. Feed media was fed daily in a fed-batch process using bench-scale (2 L working volume) bioreactors.

The test system of experiment [3] is CHO.DXB11 cells. Description: Oleic acid in bench-scale bioreactors, baseline with ethanol, mAb 1. It counts as cell-based, Chinese hamster. To be noted: oleic acid 40 μM fed daily vs baseline w/ethanol, 14 day fed-batch. The source says: Ethanol supplemented media was further supplemented with fatty acids to determine if fatty acids altered mAb properties. Feed media was fed daily in a fed-batch process using bench-scale (2 L working volume) bioreactors. […] Media used for baseline measurements contains ethanol but no fatty acids.

A further experiment concerns CHO.DXB11 derived clone. Description: Sodium chloride supplementation, microscale bioreactors, mAb3. It counts as cell-based, Chinese hamster. To be noted: sodium chloride 4.59 mM and 9.18 mM fed daily, 12 day fed-batch. How it is done:
Monoclonal antibody 3 (mAb3) is a monoclonal antibody produced using recombinant DNA technology. The expression vector is fully synthetic with both heavy- and light-chain gene sequences regulated by strong constitutive promoters. Gene sequences were confirmed by DNA sequencing. The expression vector was linearized by restriction enzymes and stably transfected into CHO.DXB11 cells by electroporation. Gene amplification steps were performed with increasing concentrations of methotrexate. Single cell cloning was performed after gene amplification. Select single cell clones were expanded and cryopreserved. The cell line used was a CHO.DXB11 derived clone.
Sodium chloride was fed daily at 4.59 mM and 9.18 mM using two different process strategies. Process strategy 1 was maintained at 36.5° C. then shifted to 31° C. during production phase. Process strategy 2 was maintained at 36.5° C. then shifted to 31° C. during production phase then re-shifted back to 36.5° C. during late production phase. Both process strategies were maintained at 30% air saturation and a pH of 7.0±0.2. Other glycan species and HMW % and LMW % are not listed because no significant change in levels were observed from sodium chloride supplementation.

[4] abbreviates: process strategies 1 and 2, mAb3.

`CCCCCCCC(=O)OCC(O)CO` (racemic) [1-octanoyl-rac-glycerol]: in the experiment with CHO.DXB11 cells [1], the “Effect on G0F glycan species” value was “decreased”, the “Effect on acidic charge variants” value is “decreased”, the “Effect on low molecular weight species” value was “decreased” and the Effect on titer result is “increased”. Moreover, in the experiment on cell line producing mAb4, the “Effect on acidic charge variants” value is “decreased”, the “Effect on relative percentage of G0F glycan species” value is listed as “decreased”, the “Effect on relative percentage of G0 glycan species” value is listed as “decreased” and the “Effect on relative percentage of HMW species” value is “decreased”. In the experiment with cell line producing mAb4, the “Effect on relative percentage of Man5 glycan species” value was “decreased” and the “Effect on relative percentage of basic charge variants” value is reported as “decreased”.

Turning to `CC(C)CCC[C@@H](C)[C@H]1CC[C@H]2[C@@H]3CC=C4C[C@@H](O)CC[C@]4(C)[C@H]3CC[C@]12C` [cholesterol], in the experiment on CHO.DXB11 cells [1], the “Effect on G0 glycan species” value was “Decreased” and the “Effect on basic charge variants” value is on record as “decreased”. Moreover, in the experiment with cell line producing mAb4, the “Effect on relative percentage of G0 glycan species” value is “decreased”, the “Effect on relative percentage of Man5 glycan species” value is recorded as “decreased” and the “Effect on relative percentage of basic charge variants” value is “decreased”.

In the case of `CCCCC/C=C\C/C=C\CCCCCCCC(=O)O` [linoleic acid], in the experiment on CHO.DXB11 cells [1], the “Effect on acidic charge variants” value is “decreased”, the “Effect on low molecular weight species” value is “decreased” and the Effect on titer result is on record as “increased”. In addition, in the experiment with cell line producing mAb4, the “Effect on LMW species” value is on record as “decreased”, the “Effect on acidic charge variants” value is “decreased”, the “Effect on relative percentage of G0 glycan species” value was “decreased” and the “Effect on relative percentage of Man5 glycan species” value is recorded as “decreased”.

`CCCCCCCC(=O)OC` [methyl octanoate]: in the experiment with CHO.DXB11 cells [1], the “Effect on G0F glycan species” value is on record as “decreased”, the “Effect on G0 glycan species” value is reported as “Decreased” and the “Effect on acidic charge variants” value is listed as “decreased”. Moreover, in the experiment on cell line producing mAb4, the “Effect on relative percentage of G0 glycan species” value is reported as “decreased”, the “Effect on relative percentage of HMW species” value is given as “decreased”, the “Effect on relative percentage of Man5 glycan species” value is “decreased” and the “Effect on relative percentage of basic charge variants” value was “decreased”.

As to `CCCCCCCCCCCCCC(=O)O` [myristic acid], in the experiment with CHO.DXB11 cells [1], the “Effect on G0F glycan species” value was “decreased”, the “Effect on G0 glycan species” value is reported as “Decreased” and the “Effect on acidic charge variants” value was “decreased”. Also, in the experiment on cell line producing mAb4, the “Effect on acidic charge variants” value is reported as “decreased”, the “Effect on relative percentage of G0 glycan species” value was “decreased”, the “Effect on relative percentage of HMW species” value is reported as “decreased” and the “Effect on relative percentage of Man5 glycan species” value is “decreased”. In addition, in the experiment with cell line producing mAb4, the “Effect on relative percentage of basic charge variants” value is reported as “decreased”.

As to `CCCCCCCC/C=C\CCCCCCCC(=O)O` [oleic acid], in the experiment with CHO.DXB11 cells [2], the “Effect on G0F glycan species” value is listed as “decreased”, the “Effect on G0 glycan species” value is recorded as “decreased”, the “Effect on G1F glycan species” value is given as “increased” and the “Effect on G2F glycan species” value is on record as “increased”. In addition, in the experiment on CHO.DXB11 cells [2], the “Effect on Man5 glycan species” value is given as “decreased”, the “Effect on acidic charge variants” value is “decreased”, the “Effect on high molecular weight species” value was “decreased” and the “Effect on monoclonal antibody titer” value is recorded as “increased”. Also, in the experiment with CHO.DXB11 cells [3], the “Effect on G0F glycan species” value is reported as “increased”, the “Effect on G0 glycan species” value is listed as “decreased”, the “Effect on G1F glycan species” value is given as “decreased” and the “Effect on G2F glycan species” value was “decreased”. Moreover, in the experiment on CHO.DXB11 cells [3], the “Effect on Man5 glycan species” value was “decreased”, the “Effect on acidic charge variants” value was “decreased”, the “Effect on antibody titer” value is “decreased” and the “Effect on basic charge variants” value was “increased”. Further, in the experiment with CHO.DXB11 cells [3], the “Effect on high molecular weight species” value is “increased” and the “Effect on low molecular weight species” value was “increased”. In the experiment on CHO.DXB11 cells [1], the “Effect on G0F glycan species” value was “decreased”, the “Effect on G0 glycan species” value is recorded as “Decreased” and the “Effect on acidic charge variants” value is reported as “decreased”. Moreover, in the experiment on cell line producing mAb4, the “Effect on acidic charge variants” value is on record as “decreased”, the “Effect on relative percentage of G0 glycan species” value was “decreased” and the “Effect on relative percentage of Man5 glycan species” value is “decreased”.

As for `CCCCCCCCCCCCCCCC(=O)O` [palmitic acid], in the experiment with CHO.DXB11 cells [1], the “Effect on G0 glycan species” value is “Decreased”, the “Effect on acidic charge variants” value is “decreased”, the “Effect on basic charge variants” value is “decreased” and the “Effect on low molecular weight species” value is given as “decreased”. In the experiment with cell line producing mAb4, the “Effect on LMW species” value is “decreased” and the “Effect on acidic charge variants” value is recorded as “decreased”.

For the compound `[Cl-].[Na+]` [sodium chloride], in the experiment on CHO.DXB11 derived clone (mAb3), the “Effect on HMW %” value is listed as “did not change” and the “Effect on LMW %” value is “did not change”. For the same compound, in the experiment on CHO.DXB11 derived clone (setting [4]), the “Effect on G0F glycan species” value is recorded as “decreased”, the “Effect on G0 glycan species” value was “increased”, the “Effect on G1F glycan species” value is “increased” and the “Effect on G2F glycan species” value is on record as “increased”. In addition, in the experiment with CHO.DXB11 derived clone (setting [4]), the “Effect on Man5 glycan species” value was “increased”, the “Effect on acidic charge variants” value was “increased”, the “Effect on basic charge variants” value was “increased” and the “Effect on monoclonal antibody titer” value is listed as “decreased”. Further, the “Effect on monoclonal antibody titer” value in the experiment with CHO.DXB11 derived clone (process strategies 1 and 2, mAb3, listed as Sodium chloride) is “reduced”.

`CCCCCCCCCCCCCCCCCC(=O)O` [stearic acid]: in the experiment on CHO.DXB11 cells [1], the “Effect on G0 glycan species” value was “Decreased”, the “Effect on basic charge variants” value is listed as “decreased” and the “Effect on low molecular weight species” value is “decreased”. Moreover, the “Effect on acidic charge variants” value with cell line producing mAb4 is recorded as “decreased”.

For the compound `Cc1ccc(C(C)C)c(O)c1` [thymol], in the experiment on CHO.DXB11 cells [1], the “Effect on G0 glycan species” value is “Decreased”, the “Effect on acidic charge variants” value was “decreased”, the “Effect on low molecular weight species” value is recorded as “decreased” and the Effect on titer result was “increased”. In the experiment with cell line producing mAb4, the “Effect on LMW species” value is recorded as “decreased”, the “Effect on acidic charge variants” value was “decreased”, the “Effect on relative percentage of HMW species” value is on record as “decreased” and the “Effect on relative percentage of Man5 glycan species” value is “decreased”. The “Effect on relative percentage of basic charge variants” value in the experiment on cell line producing mAb4 is “decreased”.

Regarding cholesteryl acetate, in the experiment on CHO.DXB11 cells [1], the “Effect on G0F glycan species” value is “decreased”, the “Effect on G0 glycan species” value is “Decreased” and the “Effect on Man5 glycan species” value is given as “Decreased”. Further, in the experiment with cell line producing mAb4, the “Effect on LMW species” value is reported as “decreased”, the “Effect on acidic charge variants” value is recorded as “decreased”, the “Effect on relative percentage of G0 glycan species” value is listed as “decreased” and the “Effect on relative percentage of HMW species” value is listed as “decreased”. In the experiment on cell line producing mAb4, the “Effect on relative percentage of Man5 glycan species” value was “decreased” and the “Effect on relative percentage of basic charge variants” value is “decreased”.
